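Results reflect a 48-hour exposure of cells in 96-well plates to compound at five concentrations. TGI marks complete inhibition of growth.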
Legend:
Test in all cases: NCI tumour cell line growth inhibition, 48 h
NCI-H460 lung = test system: NCI-H460 lung
HL-60(TB) leukemia = test system: HL-60(TB) leukemia
RXF 393 renal = test system: RXF 393 renal
HCC-2998 colon = test system: HCC-2998 colon
MDA-MB-435 = test system: MDA-MB-435
TK-10 renal = test system: TK-10 renal
OVCAR-5 ovarian = test system: OVCAR-5 ovarian
SNB-19 CNS = test system: SNB-19 CNS
BT-549 breast = test system: BT-549 breast
NCI-H522 lung = test system: NCI-H522 lung
HS 578T breast = test system: HS 578T breast
NCI-H23 lung = test system: NCI-H23 lung
U251 CNS = test system: U251 CNS
NCI/ADR-RES ovarian = test system: NCI/ADR-RES ovarian
SK-MEL-2 melanoma = test system: SK-MEL-2 melanoma
OVCAR-4 ovarian = test system: OVCAR-4 ovarian
OVCAR-8 ovarian = test system: OVCAR-8 ovarian
PC-3 prostate = test system: PC-3 prostate
HOP-62 NSCLC = test system: HOP-62 NSCLC
HT29 colon = test system: HT29 colon
DU-145 prostate = test system: DU-145 prostate
UO-31 renal = test system: UO-31 renal
T-47D breast = test system: T-47D breast
M14 melanoma = test system: M14 melanoma
K-562 leukemia = test system: K-562 leukemia
UACC-257 melanoma = test system: UACC-257 melanoma
SK-MEL-5 melanoma = test system: SK-MEL-5 melanoma
SNB-75 CNS = test system: SNB-75 CNS
SN12C renal = test system: SN12C renal
A498 renal = test system: A498 renal
HCT-15 colon = test system: HCT-15 colon
786-0 renal = test system: 786-0 renal
HCT-116 colon = test system: HCT-116 colon
MCF7 breast = test system: MCF7 breast
SR leukemia = test system: SR leukemia
RPMI-8226 leukemia = test system: RPMI-8226 leukemia
SF-539 CNS = test system: SF-539 CNS
EKVX NSCLC = test system: EKVX NSCLC
CAKI-1 renal = test system: CAKI-1 renal
KM12 colon = test system: KM12 colon
SF-295 CNS = test system: SF-295 CNS
SF-268 CNS = test system: SF-268 CNS
MDA-MB-231 breast = test system: MDA-MB-231 breast
NCI-H226 lung = test system: NCI-H226 lung
MDA-N = test system: MDA-N
LOX IMVI melanoma = test system: LOX IMVI melanoma
SW-620 colon = test system: SW-620 colon
HOP-92 NSCLC = test system: HOP-92 NSCLC
IGROV1 ovarian = test system: IGROV1 ovarian
COLO 205 colon = test system: COLO 205 colon
SK-OV-3 ovarian = test system: SK-OV-3 ovarian
MALME-3M melanoma = test system: MALME-3M melanoma
ACHN renal = test system: ACHN renal
OVCAR-3 ovarian = test system: OVCAR-3 ovarian
UACC-62 melanoma = test system: UACC-62 melanoma
SK-MEL-28 melanoma = test system: SK-MEL-28 melanoma
A549 NSCLC = test system: A549 NSCLC
CCRF-CEM leukemia = test system: CCRF-CEM leukemia
MOLT-4 leukemia = test system: MOLT-4 leukemia

Molecule `CCOP(=O)(OCC)/C(C#N)=C/c1c[nH]c2ccccc12` has a TGI (NCI-H460 lung) of over 100 µM, a TGI (HL-60(TB) leukemia) of over 100 µM and a TGI (RXF 393 renal) of over 100 µM. It also gave a TGI (HCC-2998 colon) of over 100 µM, a TGI (MDA-MB-435) of over 100 µM and a TGI (TK-10 renal) of over 100 µM. For the same molecule, the TGI (OVCAR-5 ovarian) was over 100 µM, the TGI (SNB-19 CNS) was over 100 µM and the TGI (BT-549 breast) was over 100 µM. It also gave a TGI (NCI-H522 lung) of over 100 µM, a TGI (HS 578T breast) of over 100 µM and a TGI (NCI-H23 lung) of over 100 µM. The TGI (U251 CNS) was over 100 µM, the TGI (NCI/ADR-RES ovarian) was over 100 µM and the TGI (SK-MEL-2 melanoma) was over 100 µM. The TGI (OVCAR-4 ovarian) was over 100 µM, the TGI (OVCAR-8 ovarian) was over 100 µM and the TGI (PC-3 prostate) was over 100 µM. For the same molecule, the TGI (HOP-62 NSCLC) was over 100 µM, the TGI (HT29 colon) was over 100 µM and the TGI (DU-145 prostate) was over 100 µM. The TGI (UO-31 renal) was 77.4 µM, the TGI (T-47D breast) was over 100 µM and the TGI (M14 melanoma) was over 100 µM. The TGI (K-562 leukemia) was over 100 µM, the TGI (UACC-257 melanoma) was over 100 µM and the TGI (SK-MEL-5 melanoma) was over 100 µM. The TGI (SNB-75 CNS) was over 100 µM, the TGI (SN12C renal) was over 100 µM and the TGI (A498 renal) was over 100 µM. For the same molecule, the TGI (HCT-15 colon) was over 100 µM, the TGI (786-0 renal) was over 100 µM and the TGI (HCT-116 colon) was over 100 µM. For the same molecule, the TGI (MCF7 breast) was over 100 µM, the TGI (SR leukemia) was over 100 µM and the TGI (RPMI-8226 leukemia) was over 100 µM. The TGI (SF-539 CNS) was over 100 µM, the TGI (EKVX NSCLC) was over 100 µM and the TGI (CAKI-1 renal) was over 100 µM. For the same molecule, the TGI (KM12 colon) was over 100 µM, the TGI (SF-295 CNS) was over 100 µM and the TGI (SF-268 CNS) was over 100 µM. For the same molecule, the TGI (MDA-MB-231 breast) was over 100 µM, the TGI (NCI-H226 lung) was over 100 µM and the TGI (MDA-N) was over 100 µM. The TGI (LOX IMVI melanoma) was over 100 µM, the TGI (SW-620 colon) was over 100 µM and the TGI (HOP-92 NSCLC) was over 100 µM. It also gave a TGI (IGROV1 ovarian) of over 100 µM, a TGI (COLO 205 colon) of over 100 µM and a TGI (SK-OV-3 ovarian) of over 100 µM. For the same molecule, the TGI (MALME-3M melanoma) was over 100 µM, the TGI (ACHN renal) was over 100 µM and the TGI (OVCAR-3 ovarian) was over 100 µM. For the same molecule, the TGI (UACC-62 melanoma) was over 100 µM, the TGI (SK-MEL-28 melanoma) was over 100 µM and the TGI (A549 NSCLC) was over 100 µM.
`CSc1cccc(NC(=O)OC2CCCCCCCCCCC2)c1` gave a TGI (NCI-H460 lung) of 35.2 µM, a TGI (HL-60(TB) leukemia) of 35.1 µM and a TGI (RXF 393 renal) of 70.9 µM. The TGI (MDA-MB-435) was 39.9 µM, the TGI (TK-10 renal) was 75.1 µM and the TGI (OVCAR-5 ovarian) was over 100 µM. For the same molecule, the TGI (SNB-19 CNS) was over 100 µM, the TGI (BT-549 breast) was over 100 µM and the TGI (NCI-H522 lung) was 37.1 µM. For the same molecule, the TGI (HS 578T breast) was over 100 µM, the TGI (NCI-H23 lung) was 98 µM and the TGI (U251 CNS) was 41 µM. For the same molecule, the TGI (NCI/ADR-RES ovarian) was 64.5 µM, the TGI (SK-MEL-2 melanoma) was 39.4 µM and the TGI (OVCAR-4 ovarian) was 45.6 µM. It also gave a TGI (CCRF-CEM leukemia) of 45.5 µM, a TGI (OVCAR-8 ovarian) of over 100 µM and a TGI (PC-3 prostate) of over 100 µM. For the same molecule, the TGI (HOP-62 NSCLC) was 48.3 µM, the TGI (HT29 colon) was 43.8 µM and the TGI (DU-145 prostate) was over 100 µM. The TGI (UO-31 renal) was 22 µM, the TGI (T-47D breast) was over 100 µM and the TGI (M14 melanoma) was 59.5 µM. It also gave a TGI (K-562 leukemia) of 93.7 µM, a TGI (UACC-257 melanoma) of 38.7 µM and a TGI (SK-MEL-5 melanoma) of 29.1 µM. It also gave a TGI (SNB-75 CNS) of over 100 µM, a TGI (SN12C renal) of 33.2 µM and a TGI (A498 renal) of 62.3 µM. For the same molecule, the TGI (HCT-15 colon) was over 100 µM, the TGI (786-0 renal) was 53.9 µM and the TGI (HCT-116 colon) was 38.9 µM. The TGI (MCF7 breast) was 60.4 µM, the TGI (SR leukemia) was over 100 µM and the TGI (MOLT-4 leukemia) was over 100 µM. For the same molecule, the TGI (RPMI-8226 leukemia) was 54.4 µM, the TGI (SF-539 CNS) was 63.7 µM and the TGI (EKVX NSCLC) was 57.6 µM. The TGI (CAKI-1 renal) was 61 µM, the TGI (KM12 colon) was 31.5 µM and the TGI (SF-295 CNS) was 57.9 µM. The TGI (SF-268 CNS) was over 100 µM, the TGI (MDA-MB-231 breast) was 66.8 µM and the TGI (NCI-H226 lung) was 61.7 µM. For the same molecule, the TGI (MDA-N) was 60.8 µM, the TGI (LOX IMVI melanoma) was 35.1 µM and the TGI (SW-620 colon) was 45.9 µM. It also gave a TGI (HOP-92 NSCLC) of over 100 µM, a TGI (IGROV1 ovarian) of over 100 µM and a TGI (COLO 205 colon) of 28.3 µM. It also gave a TGI (SK-OV-3 ovarian) of 57.9 µM, a TGI (MALME-3M melanoma) of 59.1 µM and a TGI (ACHN renal) of over 100 µM. For the same molecule, the TGI (OVCAR-3 ovarian) was 29.6 µM, the TGI (UACC-62 melanoma) was 52.7 µM and the TGI (SK-MEL-28 melanoma) was over 100 µM. The TGI (A549 NSCLC) was over 100 µM.
